How the values were obtained:
[1] = biological target: T1, human recombinant dopamine D2L receptor (Homo sapiens, UniProt P14416); experiment: Dopamine D2L antagonist activity ([35S]GTPγS binding, SPA); type: biochemical; settings: for Antagonist Activity As Measured by % Inhibition D2L / inhibition at 0.03 µM / inhibition at 0.1 µM / inhibition at 0.3 µM: two values = assay run twice; for inhibition at 0.03 µM / inhibition at 0.1 µM / inhibition at 0.3 µM / inhibition at 1 µM / inhibition at 3 µM: read-out: Antagonist Activity As Measured by % Inhibition D2L
T1 construct: expressed in transfected cells; host or cells: CHO cells
Experimental: To determine for agonist or antagonist activity of compounds of the invention in functional assays, human recombinant dopamine D2L receptor stably expressed in Chinese hamster ovary (CHO) cells (Senogles S E et al. J Biol Chem. 265(8): 4507, 1990) was used. Compounds of invention were pre-incubated with the membranes (0.1 mg/ml) and […] in modified HEPES buffer (20 mM HEPES, pH 7.4, 100 mM NaCl, 10 mM MgCl2, 1 mM DTT, 1 mM EDTA) for 20 minutes and Scintillation Proximity Assay (SPA) beads were added for another 60 minutes at 30° C. The reaction was initiated by 0.3 nM [^35S]GTPγS for an additional 15 minute incubation period. […] Compounds were screened at 3 μM or lower, using 0.4% DMSO as vehicle. Assay results are presented as the percent response of specific binding in Table 8.

C57BL/6 mice = experiment: Recognition of a new location of the known object (spatial memory); type: in vivo
Text: The object recognition test is based on the fact that mice and rats spontaneously explore new object or location of a known object a lot longer than the know object or a known location of an object. This test was first used in rats (Ennaceur A., Delacour J., 1988). It was further shown by others that this type of memory testing is suitable for mice (Dodart J. et al. 1997, Messier C. 1997, Pittenger C. et al., 2002, Ryabinin A. et al., 2002, Sargolini F. et al., 2003). The method of recognition of an object is divided in two stages. The first one involves the recognition of a new location of a known object, which is used to assess spatial memory. The second one includes a test for recognition of a new in order to evaluate the non-spatial memory (Gaffan D., 1992, Kolb B. et al., 1994, Steckler T., 1998). Currently, both are widely used to determine the effectiveness of newly synthesized drugs on memory.
All experiments were carried out on 3-4 months old males (C57BL/6 line) 22-26 g weight with 10 animals in each group. All animals were kept in the animal facility (5 animals per cage) on the 12×12 hours light cycle (8 am-8 pm) with free access to food and water. […] Brown glass vials were used as test objects which are 2.7 cm in diameter (1.1 inch) and 5.5 cm high (2.2 inch). All vials were treated with 85% ethanol 2-3 minutes before each testing. Animals were placed in the center of the chamber.
Dimebon and compounds of the invention were dissolved in distilled water and administered orally at 0.05 mL per 10 g of animal mass 1 hour before the training exercise. All animals in the control group were treated with the equivalent dose of vehicle. The testing was performed 48 hours after the training exercise because animals forget the location of the object during the 48-hour resting time.
On the first day animals were brought in the testing room so that they could adapt to the testing environment for 20-30 min. Subsequently, each animal was placed in the empty testing chamber for 10 min, which was wiped with alcohol beforehand. After that animals were transferred back into the […] and returned to the animal facility.
The next day after habituation, the animals were brought back into the testing room where they were weighed and injected with the testing compound. An hour after injection, each animal was placed into the testing camber which had two identical objects that were positioned 14.5 cm (5.7 inches) from the corners on the diagonal. The training exercise lasted for 15 min for each animal. Subsequently, each animal was placed back into the cage and returned into the animal house.
The testing procedure was performed 48 hours after the training exercise. During the procedure two objects were used as in the training exercise. […] The amount of time that each animal spent on exploration each object was determined with 0.1 sec accuracy using two electronic stopwatches for total of 10 min. […] The survey of the object was counted as positive if the nose of an animal was pointed within 2 cm or if the animal was touching the objected directly with the nose.
Due to fair differences in the amount of time that each animal surveyed the object, the percentage of the survey time for each animal was determined using this formula: tNL/(tFL+tNL)×100 (where t is time, NL—new location(object), and FL—familiar location(object)). […] Subsequently, the statistical significance was analyzed using a Student's t-test criteria.

T1 sequence (P14416 whole entry): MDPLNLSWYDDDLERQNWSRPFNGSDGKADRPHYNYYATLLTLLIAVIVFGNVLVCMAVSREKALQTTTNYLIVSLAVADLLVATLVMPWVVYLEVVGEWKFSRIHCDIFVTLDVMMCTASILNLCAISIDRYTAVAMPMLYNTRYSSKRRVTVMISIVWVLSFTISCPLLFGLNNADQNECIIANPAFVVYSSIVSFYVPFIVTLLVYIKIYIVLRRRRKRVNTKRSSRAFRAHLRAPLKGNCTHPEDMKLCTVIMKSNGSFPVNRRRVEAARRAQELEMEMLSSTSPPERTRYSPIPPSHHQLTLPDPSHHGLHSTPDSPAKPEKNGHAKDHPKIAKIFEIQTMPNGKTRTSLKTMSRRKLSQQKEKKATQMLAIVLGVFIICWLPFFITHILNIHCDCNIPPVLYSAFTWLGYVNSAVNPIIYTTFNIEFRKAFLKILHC

| SMILES | Antagonist Activity As Measured by % Inhibition D2L ([1]; 0.03 uM) [%] | inhibition at 0.03 µM ([1]; 0.03 uM) [%] | Antagonist Activity As Measured by % Inhibition D2L ([1]; 0.1 uM) [%] | inhibition at 0.1 µM ([1]; 0.1 uM) [%] | Antagonist Activity As Measured by % Inhibition D2L ([1]; 0.3 uM) [%] | inhibition at 0.3 µM ([1]; 0.3 uM) [%] | inhibition at 1 µM [1] [%] | inhibition at 3 µM [1] [%] | effect on memory in the recognition test of a known object in a new location (C57BL/6 mice; 0.05 mg/kg, 0.5 mg/kg, and 1 mg/kg) | time exploring the object in a new location, % of the total time (C57BL/6 mice; 0.1 mg/kg) [%] | time exploring the object in the known position, % of the total time (C57BL/6 mice; 0.1 mg/kg) [%] |
| --- | --- | --- | --- | --- | --- | --- | --- | --- | --- | --- | --- |
| CN1CCc2c(c3cc(Cl)ccc3n2CCc2ccccc2)C1 [Compound 36, 8-chloro-2,3,4,5-tetrahydro-2-methyl-5-phenethyl-1H-pyrido[4,3-b]indole] | 43 | 48 | 57 | 73 | 88 | 83 | 85 | 104 |  |  |  |
| COc1ccc(CCn2c3c(c4cc(C)ccc42)CN(C)CC3)cc1 [Compound 247] | 52 | 48 |  | 66 | 83 | 81 | 89 | 91 |  |  |  |
| CN1CCc2c(c3ccccc3n2CCc2noc(-c3ccccc3)n2)C1 [Compound C4-1] |  |  |  |  |  |  |  |  | not significantly different from the control group | 61.3±6.9 | 38.7±6.9 |
